Laboratory results taken from US9890147B2 (BAYER PHARMA AKTIENGESELLSCHAFT, priority 2012, dated 2018).

Legend:
LAPC-4 cells = test: Cell proliferation assay (alamarBlue), LAPC-4; format: cell-based; details: Homo sapiens, LAPC4; inhibition of cell proliferation, LAPC-4 (prostate cancer), 1 nM methyltrienolone, 168 hours
Method: (§1) In accordance with the invention, the capability of the substances to inhibit cell proliferation was determined Cell viability was determined using the alamarBlue® reagent (Invitrogen) in a Victor X3 Multilabel Reader (Perkin Elmer). The excitation wavelength was 530 nm and the emission wavelenth […].
The LAPC-4 cells (ATCC, PTA-1441TM) were sown at a concentration of 4000 cells/well in 100 μl growth medium (RPMI1640, 2 mM L-glutamine, 10% cFCS) on 96-well microtitre plates. A day later, the LAPC-4 cells were treated with 1 nM methyltrienolone and various substance dilutions.
(§2) After an overnight incubation at 37° C., the fluorescence values (CI values) were determined. The plates were then treated with various substance dilutions (1E-5 M, 3E-6 M, 1E-6M, 3E-7 M, 1E-7 M, 3E-8 M, 1E-8 M) and incubated at 37° C. for 72 (MV4-11-, LOX-IMVI cells), 96 (MOLM-13-, B16F10-, MDA-MB-431-, Caov-3 cells), 120 (MOLP-8-, KMS-12-PE cells) or 168 (LAPC-4 cells) hours. The fluorescence values (CO values) were then determined. For the data analysis, the CI values were subtracted from the CO values and the results were compared between cells treated with different dilutions of the substance or with buffer solution only. These were used to calculate the IC 50 values (substance concentration required for 50% inhibition of cell proliferation).

MOLM-13 cells = test: Cell proliferation assay (alamarBlue), MOLM-13; format: cell-based; details: Homo sapiens, 96 hours incubation, inhibition of cell proliferation
Procedure, shortened: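 IC50 = concentration giving 50% growth inhibition relative to buffer-treated cells, after subtracting baseline fluorescence taken before dosing. Compound applied at 1E-5 to 1E-8 M for 96 h at 37 °C in RPMI1640 with 10% FCS; alamarBlue signal at 530/590 nm.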

BRD4 (BD1) = molecular target: T1, BRD4 (BD1) (Homo sapiens, UniProt O60885); test: Binding assay BRD4/acetylated peptide H4 (TR-FRET protein-protein interaction assay)
T1 construct: with relatively long constructs also being possible, preferably amino acids 44-168; made in house; host or cells: E. coli
Procedure, shortened: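 Displacement of biotin-Ac-H4 peptide from His6-tagged BRD4(BD1), final usually 10 nM, read as Eu-streptavidin to anti-His-XL665 TR-FRET (665/620 nm). Compounds tested at 11 doses up to 20 μM in duplicate, pH 7.5 HEPES, 22 °C then 4 °C incubation; IC50 by 4-parameter regression.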

MDA-MB-231 cells = test: Cell proliferation assay (alamarBlue), MDA-MB-231; format: cell-based; details: Homo sapiens; inhibition of cell proliferation, MDA-MB-231 (breast carcinoma), 96 hours
Method: as §1
The MDA-MB-231 cells (DSMZ, ACC 732) were sown at a concentration of 4000 cells/well in 100 μl growth medium (DMEM/Ham's F12 medium, 10% FCS) on 96-well microtitre plates. The Caov-3 cells (ATCC, HTB-75) were sown at a concentration of 2000 cells/well in 100 μl growth medium (MEM Earle's medium, 10% FCS) on 96-well microtitre plates.
as §2

B16F10 cells = test: Cell proliferation assay (alamarBlue), B16F10; format: cell-based; details: Mus musculus, B16-F10, 96 hours incubation, inhibition of cell proliferation
Method: as §1
The B16F10 cells (ATCC, CRL-6475) were sown at a concentration of 300-500 cells/well in 100 μl growth medium (DMEM with phenol red, 10% FCS) on 96-well microtitre plates.
as §2

LOX-IMVI cells = test: Cell proliferation assay (alamarBlue), LOX-IMVI; format: cell-based; details: Homo sapiens, 72 hours incubation, inhibition of cell proliferation
Procedure, shortened: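 alamarBlue fluorescence (530 nm excitation, 590 nm emission) measured before dosing and after 72 h at 37° C exposure to 1E-5–1E-8 M compound; 1000 cells/well plated in RPMI1640/10% FCS the night before. IC50 from baseline-corrected signal relative to buffer-treated wells.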

Caov-3 cells = test: Cell proliferation assay (alamarBlue), Caov-3; format: cell-based; details: Homo sapiens; inhibition of cell proliferation, Caov-3 (ovarian carcinoma), 96 hours
Procedure, shortened: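 Caov-3 (MEM Earle's, 10% FCS, 2000 cells/well) and MDA-MB-231 (DMEM/Ham's F12, 10% FCS, 4000 cells/well) were treated after overnight attachment with 1E-5 to 1E-8 M compound. Caov-3 exposure was 96 h. alamarBlue fluorescence (ex 530, em 590 nm) was read after background subtraction of day-0 values, and IC50 calculated versus buffer-treated cells.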

MOLP-8 cells = test: Cell proliferation assay (alamarBlue), MOLP-8; format: cell-based; details: Homo sapiens, 120 hours incubation, inhibition of cell proliferation
Procedure, shortened: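 MOLP-8 cells in RPMI1640 with 20% FCS, 4000 cells/well, treated overnight after seeding with substance at 1E-5 to 1E-8 M for 120 h at 37° C. Viability read by alamarBlue fluorescence (ex 530, em 590); pre-treatment values subtracted, compared with buffer-only cells to derive IC50.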

MV4-11 cells = test: Cell proliferation assay (alamarBlue), MV4-11; format: cell-based; details: Homo sapiens, 72 hours incubation, inhibition of cell proliferation
Procedure, shortened: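 Cells seeded at 5000/well in RPMI1640 + 10% FCS, incubated overnight at 37° C, then treated with compound (1E-5 to 1E-8 M) for 72 h at 37° C. Viability by alamarBlue fluorescence (ex 530/em 590 nm); pre-treatment readings subtracted, IC50 derived versus buffer-treated cells.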

KMS-12-PE cells = test: Cell proliferation assay (alamarBlue), KMS-12-PE; format: cell-based; details: Homo sapiens, 120 hours incubation, inhibition of cell proliferation
Procedure, shortened: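 KMS-12-PE myeloma cells in RPMI1640 with 20% FCS were exposed to compound (1E-5 to 1E-8 M) for 120 h at 37° C. AlamarBlue fluorescence (ex 530, em 590 nm) read before and after treatment; the difference versus buffer-treated cells gave IC50.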

Row | IC50 (MOLM-13 cells) | IC50 (BRD4 (BD1)) | IC50 (MDA-MB-231 cells) | IC50 (B16F10 cells) | IC50 (MV4-11 cells) | SMILES | IC50 (LAPC-4 cells) | IC50 (LOX-IMVI cells) | IC50 (Caov-3 cells) | IC50 (MOLP-8 cells) | IC50 (KMS-12-PE cells)
1 | 0.82 µM | 0.03 µM | 1.35 µM | 0.69 µM |  | CNC(=O)N1N=C(c2ccc(-c3ccc(C(=O)O)s3)cc2)c2cc(OC)c(OC)cc2CC1C (racemic) [Example 5, (±)-5-(4-{7,8-dimethoxy-4-methyl-3-[(methylamino)carbonyl]-4,5-dihydro-3H-2,3-benzodiazepin-1-yl}phenyl)thiophene-2-carboxylic acid] | 0.27 µM |  |  |  | 
2 | 0.38 µM | 0.09 µM | 0.28 µM | 0.19 µM |  | CNC(=O)N1N=C(c2ccc(Cl)cc2)c2cc(-c3ccncc3)ccc2CC1C (racemic) [Example 8, (±)-1-(4-Chlorophenyl)-N,4-dimethyl-8-(pyridin-4-yl)-4,5-dihydro-3H-2,3-benzodiazepine-3-carboxamide] | 0.18 µM |  |  |  | 
3 | 0.31 µM | 0.16 µM | 0.26 µM | 0.27 µM |  | CNC(=O)N1N=C(c2ccc(Cl)cc2)c2cc(-c3ccc(S(=O)(=O)NC)cc3)ccc2CC1C (racemic) [Example 10, (±)-1-(4-chlorophenyl)-N,4-dimethyl-8-{4-[(methylamino)sulphonyl]phenyl}-4,5-dihydro-3H-2,3-benzodiazepine-3-carboxamide] | 0.12 µM |  |  |  | 
4 | 1.91 µM | 0.31 µM | 2.58 µM | 1.12 µM |  | CNC(=O)N1N=C(c2ccc(Cl)cc2)c2cc(N3CCOCC3)ccc2CC1C (racemic) [Example 11, (±)-1-(4-Chlorophenyl)-N,4-dimethyl-8-(morpholin-4-yl)-4,5-dihydro-3H-2,3-benzodiazepine-3-carboxamide] | 0.45 µM |  |  |  | 
5 | 1.61 µM | 0.54 µM | 1.85 µM | 1.32 µM |  | CNC(=O)N1N=C(c2ccc(Cl)cc2)c2cc(N3CCN(C)CC3)ccc2CC1C (racemic) [Example 12, (±)-1-(4-Chlorophenyl)-N,4-dimethyl-8-(4-methylpiperazin-1-yl)-4,5-dihydro-3H-2,3-benzodiazepine-3-carboxamide] | 0.87 µM |  |  |  | 
6 | 0.57 µM | 0.08 µM | 1.11 µM |  |  | CNC(=O)N1N=C(c2ccc(Cl)cc2)c2cc(N3CCOCC3)ccc2C[C@@H]1C [Example 11.1, (4S)-1-(4-Chlorophenyl)-N,4-dimethyl-8-(morpholin-4-yl)-4,5-dihydro-3H-2,3-benzodiazepine-3-carboxamide] | 0.31 µM |  |  |  | 
7 | 7.74 µM | 2.51 µM | 10 µM |  |  | CNC(=O)N1N=C(c2ccc(Cl)cc2)c2cc(N3CCOCC3)ccc2C[C@H]1C [Example 11.2, (4R)-1-(4-Chlorophenyl)-N,4-dimethyl-8-(morpholin-4-yl)-4,5-dihydro-3H-2,3-benzodiazepine-3-carboxamide] |  |  |  |  | 
8 | 0.22 µM | 0.05 µM | 0.47 µM |  | 0.27 µM | CNC(=O)N1N=C(c2ccc(-n3nc(C)cc3C)cc2)c2cc(OC)ccc2C[C@@H]1C [Example 16, (4S)-1-[4-(3,5-Dimethyl-1H-pyrazol-1-yl)phenyl]-8-methoxy-N,4-dimethyl-4,5-dihydro-3H-2,3-benzodiazepine-3-carboxamide] | 0.11 µM | 0.64 µM | 0.37 µM | 0.29 µM | 0.25 µM
9 | 0.17 µM | 0.04 µM | 0.21 µM |  | 0.13 µM | CNC(=O)N1N=C(c2ccc(N3CCOCC3)cc2)c2cc(OC)ccc2C[C@@H]1C [Example 17, (4S)-8-Methoxy-N,4-dimethyl-1-[4-(morpholin-4-yl)phenyl]-4,5-dihydro-3H-2,3-benzodiazepine-3-carboxamide] | 0.1 µM | 0.3 µM | 0.22 µM | 0.11 µM | 0.11 µM
10 | 0.25 µM | 0.16 µM | 0.28 µM |  | 0.3 µM | CNC(=O)N1N=C(c2ccc(-c3cnoc3)cc2)c2cc(OC)ccc2C[C@@H]1C [Example 18, (4S)-1-[4-(4-Isoxazolyl)phenyl]-8-methoxy-N,4-dimethyl-4,5-dihydro-3H-2,3-benzodiazepine-3-carboxamide] |  | 0.76 µM | 0.48 µM | 0.34 µM | 0.35 µM
11 | 0.19 µM | 0.07 µM | 0.22 µM |  | 0.14 µM | CNC(=O)N1N=C(c2ccc(-c3c(C)noc3C)cc2)c2cc(OC)ccc2C[C@@H]1C [Example 20, (4S)-1-[4-(3,5-dimethyl-4-isoxazolyl)phenyl]-8-methoxy-N,4-dimethyl-4,5-dihydro-3H-2,3-benzodiazepine-3-carboxamide] | 0.12 µM | 0.33 µM | 0.24 µM | 0.12 µM | 0.11 µM
12 | 0.04 µM | 0.01 µM |  |  | 0.03 µM | CNC(=O)N1N=C(c2ccc(-n3nc(-c4ccccn4)cc3C3CC3)cc2)c2cc(OC)ccc2C[C@@H]1C [Example 28, (4S)-1-{4-[5-cyclopropyl-3-(pyridin-2-yl)-1H-pyrazol-1-yl]phenyl}-8-methoxy-N,4-dimethyl-4,5-dihydro-3H-2,3-benzodiazepine-3-carboxamide] | 0.02 µM | 0.04 µM | 0.04 µM | 0.02 µM | 0.03 µM

Row | SMILES | IC50 (MOLM-13 cells) | IC50 (BRD4 (BD1)) | IC50 (MDA-MB-231 cells) | IC50 (B16F10 cells) | IC50 (MV4-11 cells) | IC50 (LAPC-4 cells) | IC50 (LOX-IMVI cells) | IC50 (Caov-3 cells) | IC50 (MOLP-8 cells) | IC50 (KMS-12-PE cells)
13 | CNC(=O)N1N=C(c2ccc(Cl)cc2)c2cc(OC(F)(F)F)ccc2CC1C (racemic) [Example 1, (±)-1-(4-Chlorophenyl)-N,4-dimethyl-8-(trifluoromethoxy)-4,5-dihydro-3H-2,3-benzodiazepine-3-carboxamide] | 1.26 µM | 0.19 µM | 0.9 µM | 0.69 µM |  | 0.6 µM |  |  |  | 
14 | CNC(=O)N1N=C(c2ccc(Cl)cc2)c2cc(C3CC3)ccc2CC1C (racemic) [Example 9, (±)-1-(4-chlorophenyl)-8-cyclopropyl-N,4-dimethyl-4,5-dihydro-3H-2,3-benzodiazepine-3-carboxamide] | 0.65 µM | 0.12 µM | 0.73 µM | 0.54 µM |  | 0.43 µM |  |  |  | 
15 | CNC(=O)N1N=C(c2ccc(Cl)cc2)c2cc(OC(F)(F)F)c(Cl)cc2CC1C (racemic) [Example 15] | 3.45 µM | 0.87 µM | 6.23 µM |  |  |  |  |  |  | 
